Laboratory results reported in patent US20110306801A1, “EXTRACTION AND SEPARATION PROCESSES FOR RECOVERY OF ORGANIC SOLUTES FROM FEED SOURCES AND APPARATUSES FOR PERFORMING SAME” (Trans Ionics Corporation, priority 2009, published 2011).
Read-outs that look alike come from different tables or passages of the source.

Experiments:
[1] = Extraction of ethanol from water with cetyl alcohol, equilibrium data and distribution coefficient; format: physicochemical; conditions: aqueous ethanol feed, 75° C.
Experimental: (§1) DC=(Wo/Ws)ext/(Wo/Ww)raff (1)
(§2) The slope of this line is the distribution coefficient.
Cetyl Alcohol as an Extraction Solvent For Ethanol. Cetyl alcohol was used as a solvent for ethanol extraction. Because cetyl alcohol melts between 47° C. and 50° C. and therefore is a solid at both room temperature (25° C.) and typical fermentation temperatures (40° C.), it has been overlooked as an extraction solvent. Cetyl alcohol was tested at 75° C. at a solvent:feed ratio of 5:1.

[2] = Batch separation of ethanol from xylenes using 5 Å zeolite molecular sieves; format: physicochemical; conditions: 10.0 grams feed (8.00 wt % ethanol, 0.07 wt % water, balance mixed xylenes) with 5.0 gm zeolite, 40° C.
[3] = cetyl alcohol/oleic acid 50/50 wt %, 5:1, 75° C.
Experimental: One measure of the effectiveness of a solvent for extracting solutes is termed the distribution coefficient, which is calculated as follows in Formula (1):
as §1, §2
Mixtures of Cetyl Alcohol and Other Solvents For Extraction of Ethanol. Mixtures of cetyl alcohol with other solvents were used in order to produce a resulting extraction solvent having a lower melting point than pure cetyl alcohol. […] This solvent mixture was tested for ethanol extraction at a solvent:feed ratio of 5:1 at 75° C.

[4] = approximately 6.0 grams 100-120 mesh 5 Å sieves, 10.1 mm ID column, 20.0 ml feed with 7.47 wt % ethanol in xylenes
Experimental: Commercially available Linde 5 Å molecular sieves containing binder were ground and sieved to 100-120 mesh using standard screens. After activation at 400° C., the sieves were cooled to 150° C. and poured directly into mixed xylenes.
The stopcock was opened and samples of liquid were taken every 10 minutes for analysis by gas chromatography. Data were normalized to produce a dimensionless concentration by dividing each of the outlet ethanol concentrations by that of the feed stream.

[5] = ethanol, ABE feed, cetyl alcohol/mixed xylenes 50/50 wt %

Structure (SMILES): CCCCCCCCCCCCCCCCO [Cetyl alcohol]
- emulsion formation as extraction solvent [1]: no indication of the formation of emulsions

Structure (SMILES): CCO [ethanol]
- ethanol content leveled out after contact with 5 Å zeolite pellets [2]: 1.07 wt %
- Extract (Wo/Ws) ([3]; feed Wo/Ww 0.2000): 0.0316 Wo/Ws
- Extract (Wo/Ws) ([3]; feed Wo/Ww 0.5000): 0.0848 Wo/Ws
- volume of effluent exited the column before ethanol appeared in the product [4]: 20 mL
- Extract (Wo/Ws) ([5]; 5:1, 40° C., feed Wo/Ww 0.002): 0.00002 Wo/Ws
- Raffinate (Wo/Ww) ([5]; 5:1, 40° C., feed Wo/Ww 0.002): 0.00009 Wo/Ww
- Extract (Wo/Ws) ([5]; 5:1, 40° C., feed Wo/Ww 0.03): 0.0005 Wo/Ws
- Raffinate (Wo/Ww) ([5]; 5:1, 40° C., feed Wo/Ww 0.03): 0.0025 Wo/Ww
- Extract (Wo/Ws) ([5]; 5:1, 40° C., feed Wo/Ww 0.06): 0.0010 Wo/Ws
- Raffinate (Wo/Ww) ([5]; 5:1, 40° C., feed Wo/Ww 0.06): 0.0052 Wo/Ww
- Extract (Wo/Ws) ([5]; 5:1, 40° C., feed Wo/Ww 0.12): 0.0021 Wo/Ws
- Raffinate (Wo/Ww) ([5]; 5:1, 40° C., feed Wo/Ww 0.12): 0.0102 Wo/Ww
- Raffinate (Wo/Ww) ([5]; 5:1, 40° C., feed Wo/Ww 0.15): 0.0126 Wo/Ww
- Extract (Wo/Ws) ([5]; 5:1, 40° C., feed Wo/Ww 0.19): 0.0032 Wo/Ws
- Raffinate (Wo/Ww) ([5]; 5:1, 40° C., feed Wo/Ww 0.19): 0.0152 Wo/Ww
- Extract (Wo/Ws) ([5]; 5:1, 75° C., feed Wo/Ww 0.002): 0.00003 Wo/Ws
- Raffinate (Wo/Ww) ([5]; 5:1, 75° C., feed Wo/Ww 0.002): 0.00007 Wo/Ww
- Extract (Wo/Ws) ([5]; 5:1, 75° C., feed Wo/Ww 0.03): 0.0009 Wo/Ws
- Raffinate (Wo/Ww) ([5]; 5:1, 75° C., feed Wo/Ww 0.03): 0.0021 Wo/Ww
- Extract (Wo/Ws) ([5]; 5:1, 75° C., feed Wo/Ww 0.06): 0.0012 Wo/Ws
- Raffinate (Wo/Ww) ([5]; 5:1, 75° C., feed Wo/Ww 0.06): 0.0043 Wo/Ww
- Extract (Wo/Ws) ([5]; 5:1, 75° C., feed Wo/Ww 0.12): 0.0025 Wo/Ws
- Raffinate (Wo/Ww) ([5]; 5:1, 75° C., feed Wo/Ww 0.12): 0.0084 Wo/Ww
- Extract (Wo/Ws) ([5]; 5:1, 75° C., feed Wo/Ww 0.15): 0.0031 Wo/Ws
- Raffinate (Wo/Ww) ([5]; 5:1, 75° C., feed Wo/Ww 0.15): 0.0105 Wo/Ww
- Raffinate (Wo/Ww) ([5]; 5:1, 75° C., feed Wo/Ww 0.19): 0.0125 Wo/Ww
